Measured values published in US20190351069A1, “Coating of Nanoparticle Surfaces with Cyclopeptides for Improving Delivery of Agents Via the Oral Route” (Ruprecht-Karls-Universität Heidelberg, priority 2016, published 2019).
Where a SMILES comes first, the peptide text is derived from it.

Test: Stability of cell-penetrating peptides in simulated gastric and intestinal fluid (HPLC/MS)
Type: in vitro ADME
Procedure: Both CPPs (1 mg/mL in water) were diluted 1:1 (v/v) with either simulated gastric fluid or simulated intestinal fluid and incubated at 37° C. under constant shaking as described in the art. After 0, 15, 30 and 60 min, the samples were analyzed by HPLC/MS in order to detect the recovery of intact CPP and were compared in relation with the initial solution. • Cytotoxicity Assays • Cell Cultivation

stability in intestinal fluid (over one hour): only a moderate loss
stability in simulated gastric fluid (over one hour): high stability
remaining at 1 h, 0.5 mg/mL (simulated intestinal fluid, after one hour, 37° C., read-out: intact CPP): 47.3%
SMILES: N=C(N)NCCC[C@@H]1NC(=O)[C@H](CS)NC(=O)[C@H](CCCNC(=N)N)NC(=O)[C@H](CCCNC(=N)N)NC(=O)[C@H](CCCNC(=N)N)NC(=O)[C@H](CCCNC(=N)N)NC(=O)[C@H](CCCNC(=N)N)NC(=O)[C@H](CCCNC(=N)N)NC(=O)[C@H](CCCNC(=N)N)NC(=O)[C@H](CCCNC(=N)N)NC1=O [cyclic CPP] (cyclo(RRRRRRRRRC); ring closure inferred)
